The results in this text go back to PubChem BioAssay AID1552 (Sanford-Burnham Center for Chemical Genomics, 2009).

By Kd is commonly meant the constant that tells how readily two partners part at equilibrium.

The source made the active and inactive calls. How the calls were made is not given here.

The experiment concerns the target Ubiquitin-conjugating enzyme E2 N (Homo sapiens) (UniProt P61088). In words: UBE2N binders by NMR, biophysical, purified protein (AID 1552). To be noted: NMR binding to purified UBE2N.

Ubiquitin-conjugating enzyme E2 N (Homo sapiens), sequence (P61088 whole entry, looked up): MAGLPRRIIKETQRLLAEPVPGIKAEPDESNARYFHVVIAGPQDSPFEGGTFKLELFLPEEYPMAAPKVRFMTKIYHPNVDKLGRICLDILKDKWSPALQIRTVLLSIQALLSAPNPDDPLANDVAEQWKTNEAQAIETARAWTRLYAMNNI

On to `Cc1nc(-c2ccccc2)sc1CN`, for which the Kd is > 4 mM (inactive).
Under `Cc1ccccc1NC(=O)c1ocnc1C` stands > 4 mM (inactive); under `Nc1cccc2c(=O)[nH][nH]c(=O)c12`, > 4 mM (inactive).
Under `CC(=O)c1c(O)c(C)c(O)c2c1OC1=CC(=O)C(C(C)=O)C(=O)C12C` (configuration not stated) stands > 4 mM (inactive); under `NCc1ccc2sccc2c1`, > 4 mM (inactive).
The value for `CN1C(=O)C(Cc2c[nH]c3ccccc23)C(=O)N(C)C1=O` was > 4 mM (inactive); that for `COc1ccccc1NC(=O)/C=N/O` was > 4 mM (inactive); that for `C=CCc1ccc(OC(=O)c2ccccc2)c(OC)c1` was > 4 mM (inactive).
In the case of `O=c1[nH]c(CN2CCN(CCO)CC2)nc2ccccc12`, the Kd was > 4 mM (inactive).
Under `COc1cc(OC)c2c(c1Cl)OC1(C2=O)C(O)=CC(=O)CC1C` (configuration not stated) stands > 4 mM (inactive); under `COc1ccc(CC(=O)c2ccc(O)cc2O)cc1`, > 4 mM (inactive); under `Cc1nc2ccccc2c(=O)[nH]1`, > 4 mM (inactive).
Consider `O=C(O)CCc1c[nH]c2ccccc12`, for which the Kd was > 4 mM (inactive).
The value for `Cc1occc1C(=O)Nc1nnc(C2CCCCC2)s1` was > 4 mM (inactive); that for `O=C(O)c1ccc2sccc2c1` was > 4 mM (inactive); that for `CSc1ccn(CCC(=O)O)c(=O)n1` was > 4 mM (inactive).
Under `CCN=Cc1c(O)n(-c2ccccc2C)c(=O)[nH]c1=O` stands > 4 mM (inactive); under `O=C1CS/C(=N/N=C2CCCC2)N1`, > 4 mM (inactive).
Under `Nc1c(/C=C2\C=Nc3ccccc32)c(=O)nc2scnn12` stands > 4 mM (inactive); under `COc1ccc2c(c1OC)OC[C@@H](c1ccc(OC)c(OC)c1OC)C2`, > 4 mM (inactive).
For the compound `N#Cc1ccccc1CSc1ccccn1`, the Kd was > 4 mM (inactive).
Regarding `O=CN1CCN(C(=O)c2ccco2)CC1`, the Kd was > 4 mM (inactive).
On to `O=C(Nc1cccc2ncccc12)c1cccnc1`, for which the Kd is > 4 mM (inactive).
For the compound `COC(=O)c1nc(-c2ccccc2)oc1N(C)C`, the Kd is > 4 mM (inactive).
Under `N/N=C/c1cccnc1` stands > 4 mM (inactive).
The value for `O=C(Nc1nccs1)c1cccnc1` was > 4 mM (inactive); that for `Cc1cc(C(=O)Nc2nnc(C(F)(F)F)s2)no1` was > 4 mM (inactive).
Under `CN(C)S(=O)(=O)Nc1ccc(Br)cc1F` stands > 4 mM (inactive); under `COc1cc2cc[n+]3cc4c(OC)c(OC)ccc4cc3c2cc1OC`, > 4 mM (inactive); under `COc1ccccc1-c1nc(-c2ccc(C)nc2OC)no1`, > 4 mM (inactive).
Regarding `Cc1onc(-c2c(Cl)cccc2Cl)c1C(N)=O`, the Kd is > 4 mM (inactive).
As to `COC(CC(=O)O)c1nc2ccccc2s1` (configuration not stated), the Kd is > 4 mM (inactive).
Turning to `O=C(/C(=N\O)n1cncn1)c1ccccc1Cl`, the Kd is > 4 mM (inactive).
On to `Nc1ccc(N2CCCCC2)cc1`, for which the Kd was > 4 mM (inactive).
Under `O=C(NCc1ccccc1Cl)c1cnn2cccnc12` stands > 4 mM (inactive); under `Cn1c(SCCC(=O)O)nnc1-c1cccnc1`, > 4 mM (inactive); under `Brc1ccc(-c2nc(-c3ccncc3)no2)o1`, > 4 mM (inactive).
The value for `CCOc1nc(C)ccc1-c1noc(-c2ccco2)n1` was > 4 mM (inactive).
The value for `CN1C2CC(OC(=O)[C@H](CO)c3ccccc3)C[C@H]1[C@H]1OC21` (some centres not stated) was > 4 mM (inactive); that for `Cc1ccc(C)c(C(=O)n2cnnc2N)c1` was > 4 mM (inactive); that for `CCCOn1nnnc1-c1ccccc1` was > 4 mM (inactive).
As for `COc1cccc(/C=C2/SC(N)=NC2=O)c1`, the Kd was > 4 mM (inactive).
Under `Cn1ccc(C(=O)NC(=S)NN2CCOCC2)n1` stands > 4 mM (inactive); under `COc1cccc(-c2nc3ccc(O)cc3c(=O)o2)c1`, > 4 mM (inactive).
The value for `Clc1ccccc1OCCn1ccnc1` was > 4 mM (inactive); that for `CC(Sc1ncn[nH]1)C(=O)O` (configuration not stated) was > 4 mM (inactive); that for `COc1cc(C(=O)NCC2CCCO2)cc(OC)c1OC` (configuration not stated) was > 4 mM (inactive).
`NC(=O)Cn1nc(-c2ccc(F)cc2)ccc1=O`: the Kd was > 4 mM (inactive).
As to `Cc1ccc(C(=O)NC2=NCCS2)o1`, the Kd is > 4 mM (inactive).
The value for `COc1ccc(-c2ccc(SCC(N)=O)nn2)cc1` was > 4 mM (inactive); that for `CC1(C)C[C@@H]2C(=O)CC[C@H]3O[C@]3(C)CC[C@H]21` was > 4 mM (inactive).
The value for `Cc1cc2c(nn1)CCc1nonc1-2` was > 4 mM (inactive).
Under `O=C(Nc1cnccn1)c1cccc(C(F)(F)F)c1` stands > 4 mM (inactive); under `COc1cccc(C(=O)N2CCOCC2)c1`, > 4 mM (inactive).
Turning to `CC1=C(C(=O)Nc2ccccc2)SCCO1`, the Kd was > 4 mM (inactive).
The value for `CC[C@@]1(O)C[C@H](O[C@H]2C[C@H](N(C)C)[C@H](O)[C@H](C)O2)c2c(cc3c(c2O)C(=O)c2c(O)cccc2C3=O)[C@H]1C(=O)OC` was > 4 mM (inactive); that for `NC(N)=NCCCCN=C(N)N` was > 4 mM (inactive).
Under `COc1cc2c(cc1OC)C1Cc3ccc(OC)c(OC)c3CN1CC2` (configuration not stated) stands > 4 mM (inactive); under `CC(=O)OCC(=O)[C@@]1(O)CCC2C3CC[C@@H]4C[C@H](OC(C)=O)CC[C@]4(C)C3C(=O)C[C@@]21C` (some centres not stated), > 4 mM (inactive); under `Nc1c(C(=O)O)sc2ncccc12`, > 4 mM (inactive).
Under `CC1CCN(C(=O)c2ccc3c(c2)OCCO3)CC1` stands > 4 mM (inactive); under `NS(=O)(=O)c1ccc(NC(=S)NC2CC2)cc1`, > 4 mM (inactive); under `O=C1CSC(c2ccccc2)N1` (configuration not stated), > 4 mM (inactive).
With `COC(=O)N1CCN(c2ccc(OC)cc2)CC1`, the Kd is > 4 mM (inactive).
Under `CC(C)(C)C(=O)Nc1nnc(SCC(N)=O)s1` stands > 4 mM (inactive); under `Cc1nnc(NC(=O)C(C)Sc2nncn2C)s1` (configuration not stated), > 4 mM (inactive).
Under `O=S(=O)(Cc1ccccc1)N1CCCCCC1` stands > 4 mM (inactive); under `Cc1nc2[nH]onc2c2nccc(=O)c12`, > 4 mM (inactive).
Regarding `NC(=O)c1cn(-c2ccccc2)nc1-c1cccnc1`, the Kd was > 4 mM (inactive).
Turning to `C=CC(C)(O)CC/C=C(\C)CCC=C(C)C` (configuration not stated), the Kd was > 4 mM (inactive).
Under `O=C(Nc1ccon1)c1cc2c(s1)CCCC2` stands > 4 mM (inactive); under `O=C1CSC(=Nc2ccccc2[N+](=O)[O-])N1`, > 4 mM (inactive); under `O=C1CSC(=S)N1N1C(=O)C2C3C=CC(C3)C2C1=O` (configuration not stated), > 4 mM (inactive).
The value for `O=C(c1nc2ccccc2s1)N1CCSCC1` was > 4 mM (inactive).
The value for `NC1=NC(=O)/C(=C\c2ccccc2)S1` was > 4 mM (inactive).
In the case of `O=C(O)c1cc2ccccc2s1`, the Kd is > 4 mM (inactive).
Under `Nc1ccc(C2SCCS2)cc1` stands > 4 mM (inactive).
Regarding `O=C1CCC(=O)N1CNc1ccccc1`, the Kd is > 4 mM (inactive).
Under `O=C1C2C3CCC(O3)C2C(=O)N1c1ccccc1` (configuration not stated) stands > 4 mM (inactive).
Under `COc1cc2c(cc1OC)C(=O)OC2` stands > 4 mM (inactive).
The value for `CCOC(=O)c1nc2ccccc2c(=O)n1N` was > 4 mM (inactive).
Take `COc1cc(N)ncn1`: the Kd is > 4 mM (inactive).
Under `O=C1CCCC(=O)N1c1ccc(O)cc1` stands > 4 mM (inactive); under `COc1ccc(-c2cc(=O)c3ccccc3o2)cc1OC`, > 4 mM (inactive).
As for `CC(=O)N1CCN(S(=O)(=O)c2ccccc2)CC1`, the Kd was > 4 mM (inactive).
The value for `O=C1CC2OCC=C3CN4CC[C@]56c7ccccc7N1C5[C@H]2[C@H]3CC46` (some centres not stated) was > 4 mM (inactive); that for `OCc1c[nH]c2ccccc12` was > 4 mM (inactive); that for `O=c1cnnc(Nc2ccc(O)cc2)[nH]1` was > 4 mM (inactive).
The value for `CNC(=O)C1CC(=O)N(c2ccc(O)cc2)C1` (configuration not stated) was > 4 mM (inactive); that for `O=C1NCCCC1C(=O)N/N=C/c1ccccc1` (configuration not stated) was > 4 mM (inactive); that for `CC(=O)NC12CC3CC(CC(O)(C3)C1)C2` was > 4 mM (inactive).
Under `CSc1nnc2c(n1)OC(C)=Nc1ccccc1-2` stands > 4 mM (inactive); under `NC1=NN(c2ccccc2)C(=O)C1`, > 4 mM (inactive); under `CC1CCN(C(=S)c2ccccc2O)CC1`, > 4 mM (inactive).
As for `Cc1cc(C(=O)NC(C)c2ccncc2)no1` (configuration not stated), the Kd was > 4 mM (inactive).
The value for `O=C1NC(=O)C(Cc2ccccc2)C(=O)N1` was > 4 mM (inactive).
The value for `CC(=O)Nn1c(=O)[nH]c2ccccc2c1=O` was > 4 mM (inactive); that for `COc1ccccc1/C=C\C(=O)O` was > 4 mM (inactive); that for `Cc1nnc(SCc2cccs2)[nH]c1=O` was > 4 mM (inactive).
The value for `Clc1ccc2c(N3CCNCC3)ccnc2c1` was > 4 mM (inactive); that for `O=C(O)c1[nH]nc2c1COc1ccccc1-2` was > 4 mM (inactive).
Turning to `CN(C)c1ccc(N2C(=O)CCC2=O)cc1`, the Kd was > 4 mM (inactive).
Under `Nc1nc(NCc2ccco2)nn1-c1ccccc1` stands > 4 mM (inactive); under `Cc1ccc(N2C(=O)CCC2=O)cc1`, > 4 mM (inactive); under `Nc1ccc(S(=O)(=O)Nc2ccc(F)cc2F)cc1`, > 4 mM (inactive).
Under `CC(C)CCCC(C)[C@H]1CCC2C3CC[C@H]4CC(=O)CC[C@]4(C)C3CC[C@@]21C` (some centres not stated) stands > 4 mM (inactive).
The value for `O=C1CCC(=O)N1c1cccc([N+](=O)[O-])c1` was > 4 mM (inactive).
